According to patent US4234546A, “Liquid/liquid extraction of nickel values” (Shell Oil Company, priority 1977, dated 1980):
Where two headings read alike, the source gives them in different places.

Text: The extent to which nickel values in the aqueous solution are transferred into the extractant, expressed in terms of a "distribution coefficient", is also of importance. The distribution coefficient after t minutes' agitation is defined as
wherein "a" is as defined hereinbefore and "c" is the nickel content of the aqueous phase, expressed in mg Ni/l.
The temperature in the vessel was held constant by circulating water through the space between the outer and the inner walls of the vessel. The vessel was provided with an inlet tube, a sampling cock at the bottom, a six-bladed turbine stirrer with a distance between the ends of the opposite tips of 2.8 cm, and four baffles, connected to the wall of the vessel and extending to the central axis over a distance of 0.7 cm. The stirrer speed was 2000 revolutions per minute.
100 ml of the starting organic extractant was introduced into the cylindrical vessel, the blades of the stirrer were positioned at the surface of the organic solution, stirring was started, and 100 ml of the starting aqueous solution was poured into the vessel. […] The temperature of the batch extraction mixture was held at 50° C. When equilibrium was reached, stirring was discontinued, the two phases were allowed to separate and the concentrations of the nickel in the organic phase and in the aqueous phase were determined. […] Stirring was again started and continued until equilibrium was attained at the higher pH. The two phases were allowed to separate and the concentrations of the nickel in the organic phase and in the aqueous phase were again determined. The procedure was continued in this manner to obtain equilibrium distribution coefficient data at several pH values.

With “1-(4-C10-14 -alkylphenyl)-1,2-nonanedione dioximes [Dioximes D]” as the compound, how does the “log D (logarithm of nickel value extraction distribution coefficient)” value (“log D” below) (pH 1.6) read?
Its value is 0.14.

And the “log D” value (pH 2.08)?
Its value is 0.87.

Which results are given for “1-(4-C10-14 -alkylphenyl)-1,2-propanedione dioximes [Dioximes C1]”?
log D (logarithm of nickel value extraction distribution coefficient) (pH 1.42): -0.30; log D (logarithm of nickel value extraction distribution coefficient) (pH 1.66): 0.10; log D (logarithm of nickel value extraction distribution coefficient) (pH 2): 0.80; log D (logarithm of nickel value extraction distribution coefficient) (pH 2.55): 1.76

For “2-(4-C10-14 -alkylphenyl)-2-hydroxyiminoethanal oximes [Dioximes B]”, which “log D” value (pH 1.36) is on record?
Its value is -0.38.

And the “log D” value (pH 1.7)?
The value was 0.12.

And the “log D” value (pH 2.1)?
The value was 0.82.

And the “log D” value (pH 2.66)?
The value was 1.84.

What does the source list for `CCCCCCCC(=NO)C(CCCCCCC)=NO` [Dioxime A, 8,9-hexadecanedione dioxime, reference compound]?
log D (logarithm of nickel value extraction distribution coefficient) (pH 1.58): -0.70; log D (logarithm of nickel value extraction distribution coefficient) (pH 1.89): -0.22; log D (logarithm of nickel value extraction distribution coefficient) (pH 2.04): 0.18; log D (logarithm of nickel value extraction distribution coefficient) (pH 2.7): 1.19
